± gives the standard deviation of the averaged measurements.
Assay: TIMS collisional cross section (CCS, N2) of the lipid ion; higher = larger ion cross section
Conditions: ionization mode: positive, one isomer drawn
Description: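 Lipid extracts of human plasma (NIST SRM 1950), mouse liver and HeLa cells were separated by nanoflow C18 LC (30 min gradient, 60 °C) and analysed by TIMS-PASEF on a timsTOF Pro in positive ion mode. Ion mobility was calibrated with the Agilent tuning mix and converted to collisional cross sections (Mason–Schamp) in N2 drift gas. Lipids were identified by MS/MS (SimLipid) and manual curation. SMILES are LIPID MAPS representative structures for the annotated lipid.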

| Compound | TIMS collisional cross section (sample type: Liver) [Å²] | TIMS collisional cross section (sample type: plasma) [Å²] | TIMS collisional cross section (sample type: HeLa) [Å²] |
| --- | --- | --- | --- |
| CCCCC/C=C\C/C=C\CCCCCCCC(=O)OC[C@H](CO)OC(=O)CCCCCCCCC/C=C\CCCCCCCC [DG 18:2_20:1_0:0] (ion (formula + adduct): [C41H74O5+NH4] 1+) | 268.2 | – | – |
| CCCCC/C=C\C/C=C\C/C=C\C/C=C\CCCC(=O)O[C@@H](CO)COC(=O)CCCCCCC/C=C\C/C=C\CCCCC [DG 18:2_20:4_0:0] (ion (formula + adduct): [C41H68O5+NH4] 1+) | 261.1 | 261.6 | – |
| CCCCC/C=C\C/C=C\CCCCCCCC(=O)OC[C@H](CO)OC(=O)CCCCCCCCCCCCCCCCCCCCC [DG 18:2_22:0_0:0] (ion (formula + adduct): [C43H80O5+NH4] 1+) | 279.2 | – | – |
| CCCCC/C=C\C/C=C\CCCCCCCC(=O)OC[C@H](CO)OC(=O)CCCCCCCCCCC/C=C\CCCCCCCC [DG 18:2_22:1_0:0] (ion (formula + adduct): [C43H78O5+NH4] 1+) | 275.5 | – | – |
| CCCCC/C=C\C/C=C\CCCCCCCCCCCC(=O)O[C@@H](CO)COC(=O)CCCCCCC/C=C\C/C=C\CCCCC [DG 18:2_22:2_0:0] (ion (formula + adduct): [C43H76O5+NH4] 1+) | 272.5 | – | – |
| CCCCC/C=C\C/C=C\C/C=C\C/C=C\CCCCCC(=O)O[C@@H](CO)COC(=O)CCCCCCC/C=C\C/C=C\CCCCC [DG 18:2_22:4_0:0] (ion (formula + adduct): [C43H72O5+NH4] 1+) | 270.8 | – | – |
| CC/C=C\C/C=C\C/C=C\C/C=C\C/C=C\CCCCCC(=O)O[C@@H](CO)COC(=O)CCCCCCC/C=C\C/C=C\CCCCC [DG 18:2_22:5_0:0] (ion (formula + adduct): [C43H70O5+NH4] 1+) | 266.9 | – | – |
| CCCCC/C=C\C/C=C\C/C=C\C/C=C\CCCC(=O)O[C@@H](CO)COC(=O)CCCCCCCCCCCCCCCCCC [DG 19:0_20:4_0:0] (ion (formula + adduct): [C42H74O5+NH4] 1+) | 274.3 | – | – |
| CCCCCC/C=C\CCCCCCCC(=O)O[C@@H](CO)COC(=O)CCCCCCC/C=C\CCCCCCCCC [DG 19:1_16:1_0:0] (ion (formula + adduct): [C38H70O5+NH4] 1+) | – | – | 261.1 |
| CCCCCCCC/C=C\CCCCCCCC(=O)O[C@@H](CO)COC(=O)CCCCCCC/C=C\CCCCCCCCC [DG 19:1_18:1_0:0] (ion (formula + adduct): [C40H74O5+NH4] 1+) | – | – | 268.3 |
| CCCCCCCCCCCCCCCCCCCCCC(=O)OC[C@H](CO)OC(=O)CCCCCCCCCCCCCCCCCCCCC [DG 22:0_22:0_0:0] (ion (formula + adduct): [C47H92O5+NH4] 1+) | – | 301.3 | – |
| C[C@H](CO)CC[C@H](O)[C@@H](C)[C@H]1CC[C@H]2[C@@H]3CC=C4C[C@@H](O)CC[C@]4(C)[C@H]3CC[C@]12C [Dormatinol] (ion (formula + adduct): [C27H46O3+H] 1+) | – | 210.9 | – |
| CCCCCCCCCCCCC/C=C/[C@@H](O)[C@H](CO[C@@H]1OC(CO)[C@@H](O[C@@H]2OC(CO)[C@H](O)[C@H](O)C2O)[C@H](O)C1O)NC(=O)CCCCCCCCCCCCC (some centres undefined) [GlcCer d18:1_14:0@] (ion (formula + adduct): [C44H83NO13+H] 1+) | – | – | 297.2 |
| CCCCCCCCCCCCC/C=C/[C@@H](O)[C@H](CO[C@@H]1OC(CO)[C@@H](O[C@@H]2OC(CO)[C@H](O)[C@H](O)C2O)[C@H](O)C1O)NC(=O)CCCCCCCCCCCCCCC (some centres undefined) [GlcCer d18:1_16:0@] (ion (formula + adduct): [C46H87NO13+H] 1+) | – | 304.2 | – |
| CCCCCCCCCCCCC/C=C/[C@@H](O)[C@H](CO[C@@H]1OC(CO)[C@@H](O[C@@H]2OC(CO)[C@H](O)[C@H](O)C2O)[C@H](O)C1O)NC(=O)CCCCCCCCCCCCCCC (some centres undefined) [GlcCer d18:1_16:0] (ion (formula + adduct): [C46H87NO13+H] 1+) | – | – | 304.1 |
| CCCCCCCCCCCCC/C=C/[C@@H](O)[C@H](CO[C@@H]1O[C@H](CO)[C@@H](O)C(O)C1O)NC(=O)CCCCCCCCCCCCCCCCCCC (some centres undefined) [GlcCer d18:1_20:0@] (ion (formula + adduct): [C44H85NO8+H] 1+) | 292.9 | – | – |
| CCCCCCCCCCCCC/C=C/[C@@H](O)[C@H](CO[C@@H]1O[C@H](CO)[C@@H](O)C(O)C1O)NC(=O)CCCCCCCCCCCCCCCCCCCCC (some centres undefined) [GlcCer d18:1_22:0@] (ion (formula + adduct): [C46H89NO8+H] 1+) | 298.7 | 298.1 | 298.3 |
| CCCCCCCCCCCCC/C=C/[C@@H](O)[C@H](CO[C@@H]1O[C@H](CO)[C@@H](O)C(O)C1O)NC(=O)CCCCCCCCCCCCCCCCCCCCCC (some centres undefined) [GlcCer d18:1_23:0@] (ion (formula + adduct): [C47H91NO8+H] 1+) | 301.2 | – | 301.5 |

| Compound | TIMS collisional cross section (sample type: Liver) [Å²] | TIMS collisional cross section (sample type: plasma) [Å²] | TIMS collisional cross section (sample type: HeLa) [Å²] |
| --- | --- | --- | --- |
| CCCCCCCCCCCCC/C=C/[C@@H](O)[C@H](CO[C@@H]1O[C@H](CO)[C@@H](O)C(O)C1O)NC(=O)CCCCCCCCCCCCCCCCCCCCCCC (some centres undefined) [GlcCer d18:1_24:0@] (ion (formula + adduct): [C48H93NO8+H] 1+) | 304.1 | – | 304.2 |
| CCCCCCCC/C=C\CCCCCCCCCCCCCC(=O)N[C@@H](CO[C@@H]1O[C@H](CO)[C@@H](O)C(O)C1O)[C@H](O)/C=C/CCCCCCCCCCCCC (some centres undefined) [GlcCer d18:1_24:1@] (ion (formula + adduct): [C48H91NO8+H] 1+) | 302.8 | – | – |
| CCCCC/C=C\C/C=C\C/C=C\C/C=C\CCCC(=O)OC[C@@H](O)COP(=O)(O)O [LPA 20:4_0:0] (ion (formula + adduct): [C23H39O7P+H] 1+) | – | 205 | – |
| CCCCCCCCCCCCCC(=O)OC[C@@H](O)COP(=O)([O-])OCC[N+](C)(C)C [LPC 14:0_0:0] (ion (formula + adduct): [C22H46NO7P+H] 1+) | – | 222.55 ± 0.78 | 222.8 |
| CCCCCCCCCCCCCCCC(=O)O[C@H](CO)COP(=O)([O-])OCC[N+](C)(C)C [LPC 16:0] (ion (formula + adduct): [C24H50NO7P+H] 1+) | 229.9 | 231 | – |
| CCCCCCCCCCCCCCCC(=O)OC[C@@H](O)COP(=O)([O-])OCC[N+](C)(C)C [LPC 16:0_0:0] (ion (formula + adduct): [C24H50NO7P+H] 1+) | 230.6 | 229.87 ± 0.98 | 230.8 |
| CCCCCC/C=C/CCCCCCCC(=O)OC[C@@H](O)COP(=O)([O-])OCC[N+](C)(C)C [LPC 16:1] (ion (formula + adduct): [C24H48NO7P+H] 1+) | 224.5 | 225.13 ± 1.1 | 226 |
| CCCCCC/C=C/CCCCCCCC(=O)OC[C@@H](O)COP(=O)([O-])OCC[N+](C)(C)C [LPC 16:1_0:0] (ion (formula + adduct): [C24H48NO7P+H] 1+) | – | 225.77 ± 1.4 | – |
| CCCCCCCCCCCCCCCCCC(=O)O[C@H](CO)COP(=O)([O-])OCC[N+](C)(C)C [LPC 18:0] (ion (formula + adduct): [C26H54NO7P+H] 1+) | – | 238.4 | 237.1 |
| CCCCCCCCCCC/C=C\CCCCC(=O)O[C@H](CO)COP(=O)([O-])OCC[N+](C)(C)C [LPC 18:1] (ion (formula + adduct): [C26H52NO7P+H] 1+) | – | 231.9 | – |
| CCCCCCCCCCC/C=C\CCCCC(=O)OC[C@@H](O)COP(=O)([O-])OCC[N+](C)(C)C [LPC 18:1_0:0] (ion (formula + adduct): [C26H52NO7P+H] 1+) | 232.95 ± 1.1 | 232.8 ± 0.42 | 233.6 |
| CCCCCCCCCCCCC/C=C/C=C/C(=O)OC[C@@H](O)COP(=O)([O-])OCC[N+](C)(C)C [LPC 18:2_0:0] (ion (formula + adduct): [C26H50NO7P+H] 1+) | 227.6 ± 1.3 | 226.96 ± 1.1 | 227.3 ± 1.3 |
| CC/C=C\C/C=C\C/C=C\CCCCCCCC(=O)OC[C@@H](O)COP(=O)([O-])OCC[N+](C)(C)C [LPC 18:3] (ion (formula + adduct): [C26H48NO7P+H] 1+) | – | 224.9 | – |
| CC/C=C/C=C/C=C/C=C/CCCCCCCC(=O)OC[C@@H](O)COP(=O)([O-])OCC[N+](C)(C)C [LPC 18:4] (ion (formula + adduct): [C26H46NO7P+H] 1+) | – | 220.8 | – |
| CCCCCCCCCCCCCCCCCCCC(=O)OC[C@@H](O)COP(=O)([O-])OCC[N+](C)(C)C [LPC 20:0_0:0] (ion (formula + adduct): [C28H58NO7P+H] 1+) | – | 245 | – |
| CCCCCCCCCC/C=C\CCCCCCCC(=O)OC[C@@H](O)COP(=O)([O-])OCC[N+](C)(C)C [LPC 20:1_0:0] (ion (formula + adduct): [C28H56NO7P+H] 1+) | 239 | 239.3 | – |
| CCCCC/C=C\C/C=C\C/C=C\CCCCCCC(=O)OC[C@@H](O)COP(=O)([O-])OCC[N+](C)(C)C [LPC 20:3] (ion (formula + adduct): [C28H52NO7P+H] 1+) | 236.2 | 232.57 ± 2.1 | 234.05 ± 2.8 |

Reference: the supplement of paper PMC6965134
